Structures can show the parent of a compound that is named as a salt. Where two headings read alike, the source gives them in different places.
Biological target: T1, recombinant human baculovirus-expressed GST-tagged FASN (Homo sapiens, UniProt P49327)
T1 construct: GST
Test: FASN enzyme activity assay, fluorescence-based detection of CoA with CPM
Assay type: biochemical
Conditions: 5 nM FASN, 150 μM NADPH, 10 μM acetyl-CoA, 25 μM malonyl-CoA, 90 minutes incubation
Procedure, shortened: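 Human GST-tagged FASN, baculovirus-expressed (5 nM), in 50 mM HEPES pH 7.5 with 150 μM NADPH, 10 μM acetyl-CoA, 25 μM malonyl-CoA, 0.5% DMSO; malonyl-CoA-started, 90 min. Released CoA detected with CPM (50 μM dilution), 30 min, fluorescence ex 390/em 530. IC50 from variable-slope sigmoidal fit of % inhibition versus log concentration.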

[1] = read-out: IC50 data for Additional Compounds of Formulae I-V(a): Activity
[2] = read-out: IC50 data for Compounds of Formulae I-V/V(a): Activity

T1 sequence (P49327 whole entry): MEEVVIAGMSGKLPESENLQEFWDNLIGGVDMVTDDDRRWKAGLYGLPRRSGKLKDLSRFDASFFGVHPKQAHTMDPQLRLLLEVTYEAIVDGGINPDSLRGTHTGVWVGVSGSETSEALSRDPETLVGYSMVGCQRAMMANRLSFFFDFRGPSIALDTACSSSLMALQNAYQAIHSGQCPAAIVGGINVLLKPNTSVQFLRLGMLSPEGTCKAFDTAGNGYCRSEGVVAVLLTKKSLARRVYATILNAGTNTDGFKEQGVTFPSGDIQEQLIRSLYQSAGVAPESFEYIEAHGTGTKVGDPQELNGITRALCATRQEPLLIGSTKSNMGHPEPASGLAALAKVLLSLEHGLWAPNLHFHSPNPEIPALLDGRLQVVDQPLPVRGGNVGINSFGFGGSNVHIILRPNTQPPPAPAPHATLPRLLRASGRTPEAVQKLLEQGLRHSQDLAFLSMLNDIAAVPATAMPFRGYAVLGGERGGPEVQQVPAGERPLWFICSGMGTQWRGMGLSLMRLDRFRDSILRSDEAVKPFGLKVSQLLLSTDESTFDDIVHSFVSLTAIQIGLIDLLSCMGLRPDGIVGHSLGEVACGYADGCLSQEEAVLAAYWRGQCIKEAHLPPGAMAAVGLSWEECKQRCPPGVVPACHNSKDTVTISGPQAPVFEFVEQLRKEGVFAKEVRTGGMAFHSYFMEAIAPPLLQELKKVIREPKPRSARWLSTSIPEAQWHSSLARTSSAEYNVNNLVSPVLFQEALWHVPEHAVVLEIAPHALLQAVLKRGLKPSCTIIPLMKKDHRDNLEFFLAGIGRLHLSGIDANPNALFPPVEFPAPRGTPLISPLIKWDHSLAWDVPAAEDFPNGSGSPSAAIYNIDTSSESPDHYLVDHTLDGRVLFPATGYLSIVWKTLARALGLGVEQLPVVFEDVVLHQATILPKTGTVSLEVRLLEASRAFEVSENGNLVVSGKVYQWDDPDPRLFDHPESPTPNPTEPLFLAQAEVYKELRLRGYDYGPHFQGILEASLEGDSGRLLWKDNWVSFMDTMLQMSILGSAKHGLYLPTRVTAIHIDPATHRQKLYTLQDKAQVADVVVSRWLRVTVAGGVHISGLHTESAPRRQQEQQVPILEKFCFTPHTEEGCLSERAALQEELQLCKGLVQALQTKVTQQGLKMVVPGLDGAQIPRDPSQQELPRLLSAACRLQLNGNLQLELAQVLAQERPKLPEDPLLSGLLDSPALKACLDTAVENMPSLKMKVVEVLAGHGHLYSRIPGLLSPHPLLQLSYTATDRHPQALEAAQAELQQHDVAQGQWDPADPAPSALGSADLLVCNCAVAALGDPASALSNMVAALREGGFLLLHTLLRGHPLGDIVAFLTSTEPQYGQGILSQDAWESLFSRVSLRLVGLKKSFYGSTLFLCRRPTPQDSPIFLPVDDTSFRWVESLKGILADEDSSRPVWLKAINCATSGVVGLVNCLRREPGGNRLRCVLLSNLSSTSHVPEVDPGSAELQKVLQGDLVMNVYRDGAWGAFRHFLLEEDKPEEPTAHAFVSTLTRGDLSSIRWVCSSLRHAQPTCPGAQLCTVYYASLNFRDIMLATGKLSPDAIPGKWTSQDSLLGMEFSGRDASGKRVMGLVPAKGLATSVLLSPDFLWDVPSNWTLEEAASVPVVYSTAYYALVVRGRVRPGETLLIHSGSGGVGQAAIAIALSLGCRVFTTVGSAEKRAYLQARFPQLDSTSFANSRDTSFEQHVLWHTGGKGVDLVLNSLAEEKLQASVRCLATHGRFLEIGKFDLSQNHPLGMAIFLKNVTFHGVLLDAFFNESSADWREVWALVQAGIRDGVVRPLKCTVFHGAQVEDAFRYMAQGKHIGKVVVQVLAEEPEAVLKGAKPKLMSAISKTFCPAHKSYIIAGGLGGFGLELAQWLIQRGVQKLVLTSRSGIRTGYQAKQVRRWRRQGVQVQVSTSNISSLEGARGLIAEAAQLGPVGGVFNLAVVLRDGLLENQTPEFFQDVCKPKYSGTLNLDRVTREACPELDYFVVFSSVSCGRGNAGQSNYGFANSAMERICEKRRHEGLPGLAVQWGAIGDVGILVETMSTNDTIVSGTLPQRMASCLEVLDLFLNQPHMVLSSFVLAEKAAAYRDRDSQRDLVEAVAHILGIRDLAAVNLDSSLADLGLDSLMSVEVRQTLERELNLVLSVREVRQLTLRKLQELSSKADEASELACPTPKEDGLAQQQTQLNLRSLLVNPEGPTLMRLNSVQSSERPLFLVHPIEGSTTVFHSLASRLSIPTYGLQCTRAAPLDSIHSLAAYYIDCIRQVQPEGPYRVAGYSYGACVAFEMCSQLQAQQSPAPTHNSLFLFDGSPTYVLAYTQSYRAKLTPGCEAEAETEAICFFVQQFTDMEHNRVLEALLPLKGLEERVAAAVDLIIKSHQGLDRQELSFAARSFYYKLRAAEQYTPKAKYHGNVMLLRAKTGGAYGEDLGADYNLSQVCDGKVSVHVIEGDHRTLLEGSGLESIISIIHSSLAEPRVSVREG

| Structure (SMILES) | IC50 [1] [nM] | IC50 [2] [nM] |
| --- | --- | --- |
| Cc1c(-c2ccc(OC3CCN(C(=O)NCCN4CCOCC4)CC3)cc2)ccc2cccnc12 [Example 531, 4-[4-(8-Methyl-7-quinolyl)phenoxy]-N-(2-morpholinoethyl)piperidine-1-carboxamide HCl] | 1000 to 10000 | – |
| Cc1c(-c2ccc(OC3CCN(C(=O)N4CCCCCC4)CC3)cc2)ccc2cccnc12 [Example 562, Azepan-1-yl-[4-[4-(8-methyl-7-quinolyl)phenoxy]-1-piperidyl]methanone] | 1000 to 10000 | – |
| COc1cc(-c2ccc(OC3CCN(C(=O)C4CCC4)CC3)cc2)cn2nccc12 [Example 412, Cyclobutyl-{4-[4-(4-methoxypyrazolo[1,5-a]pyridin-6-yl)-phenoxy]-piperidin-1-yl}-methanone, HCl] | – | 1 to 99 |
| CCOc1c(-c2ccc(OC3CCN(C(=O)[C@H]4CCCO4)CC3)cc2)ccc2cccnc12 [Example 181, {4-[4-(8-Ethoxyquinolin-7-yl)-phenoxy]-piperidin-1-yl}-(R)-tetrahydro-furan-2-yl-methanone, HCl] | – | 1 to 99 |
| CC(C)C(=O)N1CCC(Oc2ccc(-c3cnc4ccccc4c3)c(Cl)c2)CC1 [Example 204, 1-[4-(3-Chloro-4-quinolin-3-yl-phenoxy)-piperidin-1-yl]-2-methyl-propan-1-one] | – | 100 to 999 |
| Cc1c(-c2ccc(OC3CCN(C(=O)NCC(F)(F)F)CC3)cc2)ccc2nccn12 [Example 606, 4-[4-(5-Methylimidazo[1,2-a]pyridin-6-yl)phenoxy]-N-(2,2,2-trifluoro-ethyl)piperidine-1-carboxamide] | 1000 to 10000 | – |
| CCC(=O)N1CCC(Oc2ccc(-c3ccc4nc(C)c(C)n4c3)cc2)CC1 [Example 290, 1-{4-[4-(2,3-Dimethylimidazo[1,2-a]pyridin-6-yl)-phenoxy]-piperidin-1-yl}-propan-1-one] | – | 1000 to 10000 |
| COc1nccc2cc(-c3ccc(OC4CCN(C(=O)[C@H]5CCCO5)CC4)cc3)ccc12 [Example 432, {4-[4-(1-Methoxyisoquinolin-6-yl)-phenoxy]-piperidin-1-yl}-(R)-tetrahydro-furan-2-yl-methanone] | – | 1 to 99 |
| CCC(=O)N1CCC(Oc2ccc(-c3cnc4ccccc4c3N)cc2)CC1 [Example 231, 1-{4-[4-(4-Aminoquinolin-3-yl)-phenoxy]-piperidin-1-yl}-propan-1-one] | – | 1000 to 10000 |
| CCC(=O)N1CCC(Nc2ccc(-c3cnc4ccccc4c3)cc2)CC1 [Example 526, 1-[4-(4-Quinolin-3-yl-phenylamino)-piperidin-1-yl]-propan-1-one, HCl] | – | 1000 to 10000 |
| CCC(=O)N1CCC(Oc2ccc(-c3cc(C)c4nccn4c3)cc2)CC1 [Example 284, 1-{4-[4-(8-Methylimidazo[1,2-a]pyridin-6-yl)-phenoxy]-piperidin-1-yl}-propan-1-one] | – | 1000 to 10000 |
| Cc1nc2ccc(-c3ccc(OC4CCN(C(=O)[C@H]5CCCO5)CC4)cc3)cn2c1C [Example 289, {4-[4-(2,3-Dimethylimidazo[1,2-a]pyridin-6-yl)-phenoxy]-piperidin-1-yl}-(R)-tetrahydrofuran 2-yl-methanone] | – | 1000 to 10000 |
| Cc1c(-c2ccc(OC3CCN(C(=O)OCC4CC4)CC3)cc2)ccc2cccnc12 [Example 553, Cyclopropylmethyl 4-[4-(8-methyl-7-quinolyl)phenoxy]piperidine-1-carboxylate HCl] | 1000 to 10000 | – |
| CCC(=O)N1CCC(Oc2ccc(-c3ccc4c(OC)nccc4c3)cc2)CC1 [Example 433] | – | 100 to 999 |
| COc1ccc2ncc(-c3ccc(OC4CCN(C(=O)[C@H]5CCCO5)CC4)cc3)cc2c1 [Example 450, {4-[4-(6-Methoxyquinolin-3-yl)-phenoxy]-piperidin-1-yl}-(R)-tetrahydro-furan-2-yl-methanone, HCl] | – | 1 to 99 |
| Cc1c(-c2ccc(OC3CCN(C(=O)[C@H]4CCCO4)CC3)cc2)ccc2cnccc12 [Example 468, {4-[4-(5-Methylisoquinolin-6-yl)-phenoxy]-piperidin-1-yl}-(R)-tetrahydro-furan-2-yl-methanone, HCl] | – | 1 to 99 |
| CCC(=O)N1CCC(C(=O)N(C)c2ccc(-c3ccc4cccnc4c3)cc2)CC1 [Example 150, 1-Propionyl-piperidine-4-carboxylic acid methyl-(4-quinolin-7-yl-phenyl)-amide] | – | 100 to 999 |
| Cc1c(-c2ccc(OC3CCN(C(=O)N(C)C)CC3)cc2)ccc2nccn12 [Example 599, N,N-Dimethyl-4-[4-(5-methylimidazo[1,2-a]pyridin-6-yl)phenoxy]piperidine-1-carboxamide] | 1000 to 10000 | – |
| CCC(=O)N1CCC(Oc2ccc(-c3ccc(Oc4ccccc4)cc3)cc2)CC1 [Example 508, 1-[4-(4′-Phenoxybiphenyl-4-yloxy)-piperidin-1-yl]-propan-1-one] | – | 1000 to 10000 |
| O=C(N1CCC(Oc2ccc(-c3cnc4ccccc4c3)cc2)CC1)N1CCCO1 [Example 73, Isoxazolidin-2-yl-[4-(4-quinolin-3-yl-phenoxy)-piperidin-1-yl]-methanone] | – | 1 to 99 |

| Structure (SMILES) | IC50 [1] [nM] | IC50 [2] [nM] |
| --- | --- | --- |
| Cc1c(-c2ccc(OC3CCN(C(=O)[C@H]4CCCN4)CC3)cc2)ccc2cccnc12 [Example 620, [4-[4-(8-Methyl-7-quinolyl)phenoxy]-1-piperidyl]-[(2R)-pyrrolidin-2-yl]methanone] | 1000 to 10000 | – |
| Cc1c(-c2ccc(OC3CCN(C(=O)[C@H]4CCCO4)CC3)cc2)ccc2ncnn12 [Example 311, {4-[4-(5-Methyl-[1,2,4]triazolo[1,5-a]pyridin-6-yl)-phenoxy]-piperidin-1-yl}-(R)-tetrahydrofuran-2-yl-methanone] | – | 1 to 99 |
| COc1cc2ncc(-c3ccc(OC4CCN(C(=O)C5CC5)CC4)cc3)cc2cc1C [Example 442, Cyclopropyl-{4-[4-(7-methoxy-6-methylquinolin-3-yl)-phenoxy]-piperidin-1-yl}-methanone] | – | 1000 to 10000 |
| COC(=O)N1CCC(Oc2ccc(-c3cnc4ccccc4c3)cc2F)CC1 [Example 15, 4-(2-Fluoro-4-quinolin-3-yl-phenoxy)-piperidine-1-carboxylic acid methyl ester] | – | 1000 to 10000 |
| O=C(N1CCC(Oc2ccc(-c3cnc4ccccc4c3Cl)cc2)CC1)N1CCCO1 [Example 76, {4-[4-(4-Chloroquinolin-3-yl)-phenoxy]-piperidin-1-yl}-isoxazolidin-2-yl-methanone] | – | 1 to 99 |
| CC(C)C(=O)N1CCC(Oc2ccc(-c3ccc4ccccc4c3)cc2)CC1 [Example 11, 2-Methyl-1-[4-(4-naphthalen-2-yl-phenoxy)-piperidin-1-yl]-propan-1-one] | – | 1000 to 10000 |
| CCC(=O)N1CCC(Oc2ccc(-c3ccnc(Oc4ccccc4)c3)cc2)CC1 [Example 409, 1-{4-[4-(2-Phenoxypyridin-4-yl)-phenoxy]-piperidin-1-yl}-propan-1-one] | – | 1000 to 10000 |
| N#Cc1cnc2cc(-c3ccc(OC4CCN(C(=O)C5CC5)CC4)cc3)ccc2c1 [Example 279, 7-[4-(1-Cyclopropanecarbonyl-piperidin-4-yloxy)-phenyl]-quinoline-3-carbonitrile] | – | 100 to 999 |
| CCC(=O)N1CCC(Oc2ccc(-c3cccc(Oc4ccccc4)c3)cc2)CC1 [Example 510, 1-[4-(3′-Phenoxybiphenyl-4-yloxy)-piperidin-1-yl]-propan-1-one] | – | 1000 to 10000 |
| CCC(=O)N1CCC(Oc2ccc(-c3cnc4ccccc4c3)c(Cl)c2)CC1 [Example 203, 1-[4-(3-Chloro-4-quinolin-3-yl-phenoxy)-piperidin-1-yl]-propan-1-one] | – | 1 to 99 |
| O=C(C1CCC1)N1CCC(Oc2ccc(-c3cnc4c(c3)CCCC4)cc2)CC1 [Example 20, Cyclobutyl-{4-[4-(5,6,7,8-tetrahydroquinolin-3-yl)-phenoxy]-piperidin-1-yl}-methanone] | – | 1000 to 10000 |
| O=C(C1CCC1)N1CCC(Oc2ccc(-c3ccc(Nc4ccccc4)nc3)cc2)CC1 [Example 394, Cyclobutyl-{4-[4-(6-phenylaminopyridin-3-yl)-phenoxy]-piperidin-1-yl}-methanone, TFA salt] | – | 1000 to 10000 |
| COc1ccc2cc(-c3ccc(OC4CCN(C(=O)[C@H]5CCCO5)CC4)cc3)cnc2c1 [Example 262, {4-[4-(7-Methoxyquinolin-3-yl)-phenoxy]-piperidin-1-yl}-(R)-tetrahydro-furan-2-yl-methanone] | – | 1 to 99 |
| Cc1c(-c2ccc(OC3CCN(C(=O)NO)CC3)cc2)cnc2ccccc12 [Example 87, 4-[4-(4-Methylquinolin-3-yl)-phenoxy]-piperidine-1-carboxylic acid hydroxyamide] | – | 1000 to 10000 |
| O=C(C1CC(F)(F)C1)N1CCC(Oc2ccc(-c3cnc4ccccc4c3)cc2)CC1 [Example 119, (3,3-Difluorocyclobutyl)-[4-(4-quinolin-3-yl-phenoxy)-piperidin-1-yl]-methanone] | – | 1000 to 10000 |
| CCC(=O)N1CCC(Oc2ccc(-c3cnc4ccoc4c3)cc2)CC1 [Example 51, 1-[4-(4-Furo[3,2-b]pyridin-6-yl-phenoxy)-piperidin-1-yl]-propan-1-one] | – | 1000 to 10000 |
| CCONC(=O)N1CCC(Oc2ccc(-c3ccc4ccnn4c3C)cc2)CC1 [Example 538, N-Ethoxyoxy-4-[4-(7-methylpyrazolo[1,5-a]pyridin-6-yl)phenoxy]piperidine-1-carboxamide] | 1 to 99 | – |
| CCC(=O)N1CCC(Oc2ccc(-c3ccc4nccn4c3Cl)cc2)CC1 [Example 296, 1-{4-[4-(5-Chloroimidazo[1,2-a]pyridin-6-yl)-phenoxy]-piperidin-1-yl}-propan-1-one] | – | 100 to 999 |
| Cc1c(-c2ccc(OC3CCN(C(=O)NCC(C)C)CC3)cc2)ccc2nccn12 [Example 593, N-Isobutyl-4-[4-(5-methylimidazo[1,2-a]pyridin-6-yl)phenoxy]piperidine-1-carboxamide] | 1000 to 10000 | – |

— patent publication US9902696B2, “1,4-substituted piperidine derivatives” (Cephalon, Inc., priority 2015, dated 2018)
